Drawing on article PMC11232109, “Synthesis, anticancer evaluation of novel hybrid pyrazole-based chalcones, molecular docking, DNA fragmentation, and gene expression: in vitro studies” (RSC Advances, 2024), this text covers IC50 for 1 compound.

The subject of this test is BJ1 (normal skin fibroblasts). Briefly: MTT assay, normal cell line BJ1. Particulars: Skin fibroblast, 48 hours. Format: cell-based. As to the method: The percentage of the cell viability treated with the newly synthesized compounds was evaluated using MTT assay (3-(4,5-dimethylthiazol-2-yl)-2,5-diphenyl tetrazolium bromide). All the subsequent steps were done in a sterile Laminar flow class II biosafety cabinet (Baker, SG406INT, Sanford, ME, USA). DMEM was used as a suspension medium for breast cancer (MCF7), prostate cancer (PC3), and pancreatic cancer (PACA2), while normal cell line (BJ1) was suspended in DMEM-F12 medium, a 1% antibiotic-antimycotic mixture (10 000 U ml^−1 potassium penicillin, 10 000 μg ml^−1 streptomycin sulfate, and 25 μg ml^−1 amphotericin B), and 1% L-glutamine at 37 °C under 5% CO2.
Cells were cultured for 10 days and then seeded at a concentration of 10 × 10^4 cells per well in fresh complete growth medium in 96-well microtiter plastic plates at 37 °C for 24 hours under 5% CO2 using a water-jacketed carbon dioxide incubator (Sheldon, TC2323). Media were aspirated, serum-free fresh medium was added, and cells were incubated either alone (negative control) or with different concentrations of the synthesized chalcone derivatives to a final concentration of (100–50–25–12.5–6.25–3.125–0.78 and 1.56 μg ml^−1). After incubation for 48 hours, the medium was aspirated and 40 μl of MTT salt ([…]) was added to each well and incubated for another four hours at 37 °C under 5% CO2. To stop the reaction and dissolve the formed crystals, 200 μl of 10% sodium dodecyl sulfate (SDS) in deionized water was added to each well and incubated overnight at 37 °C.
The absorbance was then measured at 595 nm and a reference wavelength of 620 nm using a microplate multi-well reader (Bio-Rad Laboratories Inc., model 3350). Statistical significance was tested between the samples and the negative control (cells with vehicle) using an independent t-test using the SPSS 11 program. DMSO was the vehicle used for the dissolution of the synthesized chalcones, and its final concentration on the cells was less than 0.2%. The percentage of change in viability was calculated according to the formula: ((reading of extract/reading of negative control) − 1) × 100. A Probit analysis was carried out for the determination of IC50 using the SPSS 11 program.
A general note: Tetrazolium assays rely on reduction of a dye to a coloured formazan, in cell work by metabolically active cells.

Structures are written as SMILES.

In the case of `COc1cccc2c1C(=O)c1c(O)c3c(c(O)c1C2=O)C[C@@](O)(C(=O)CO)C[C@@H]3O[C@H]1C[C@H](N)[C@H](O)[C@H](C)O1` [Doxorubicin, reference compound], half-maximal inhibition (IC50) required 13.6 ± 0.28 µM.
